Measurements published in US20220015365A1, “SYNERGISTIC HERBICIDE COMPOSITION OF BROAD-SPECTRUM FOR THE CONTROL OF WEEDS IN AGRICULTURAL CULTURES, USE OF SUCH COMPOSITION FOR PREPARATION OF PRODUCT, PRODUCT AND METHOD OF APPLICATION” (priority 2018, published 2022).

Columns and labels:
Brachiaria decumbens = assay: Pre-emergence weed control in soil prepared with weed seeds, synergy by Colby equation; type: in vivo; settings: 35 days after application
Procedure: (§1) Protocol: in soil prepared with weed seeds (without germination), the composition of the present invention was applied. This test was performed for two species of weeds: Brachiaria decumbens and Panicum maximum. Data were collected 35 days after application of the composition to the soil and calculated. […] Colby equation: to use Colby's approach to evaluate synergy or antagonism in combinations, the components of the combination should be tested individually in their concentration of components in the same study as the combination. The results observed for the combination are compared with the expected results of the Colby Equation (Colby, 1967). Note that this equation is derived from the definition of the probability of independence. […] […].2. Criteria of the analysis: • If the value observed is higher than expected (Obs>E): synergy; • If the value observed is lower than expected (Obs<E): antagonism.

Panicum maximum = assay: as above; type: in vivo; settings: 35 days after application
Procedure: as §1

Question: How did the “Control % BRADC Observed” value (Brachiaria decumbens; Flumioxazin 47.60 g ai/ha) turn out when C#CCN1C(=O)COc2cc(F)c(N3C(=O)C4=C(CCCC4)C3=O)cc21 [Flumioxazin, N-(7-Fluor-3,4-dihydro-3-oxo-4-prop-2-inyl-2H-1,4-benzoxazin-6-yl)cyclohex-1-en-1,2-dicarboximide] was run?
Answer: 81.25%

Question: And the “Control % BRADC Observed” value (Brachiaria decumbens; Flumioxazin 103.10 g ai/ha)?
Answer: 83.75%

Question: And the “Control % BRADC Observed” value (Brachiaria decumbens; Flumioxazin 176.80 g ai/ha)?
Answer: 92.75%

Question: What about the “Control % BRADC Observed” value (Brachiaria decumbens; Flumioxazin 380.00 g ai/ha) of the same compound?
Answer: 90.00%

Question: And the “Control % PANMA Observed” value (Panicum maximum; Flumioxazin 24.75 g ai/ha)?
Answer: 81.25%

Question: What about the “Control % PANMA Observed” value (Panicum maximum; Flumioxazin 33.00 g ai/ha) of the same compound?
Answer: 88.75%

Question: And the “Control % PANMA Observed” value (Panicum maximum; Flumioxazin 47.60 g ai/ha)?
Answer: 89.50%

Question: And the “Control % PANMA Observed” value (Panicum maximum; Flumioxazin 63.46 g ai/ha)?
Answer: 97.00%

Question: What about the “Control % PANMA Observed” value (Panicum maximum; Flumioxazin 103.10 g ai/ha) of the same compound?
Answer: 98.75%

Question: What about the “Control % PANMA Observed” value (Panicum maximum; Flumioxazin 137.50 g ai/ha) of the same compound?
Answer: 97.50%

Question: And the “Control % PANMA Observed” value (Panicum maximum; Flumioxazin 176.80 g ai/ha)?
Answer: 97.55%

Question: What about the “Control % PANMA Observed” value (Panicum maximum; Flumioxazin 235.70 g ai/ha) of the same compound?
Answer: 99.00%

Question: And the “Control % PANMA Observed” value (Panicum maximum; Flumioxazin 380.00 g ai/ha)?
Answer: 97.50%

Question: What about the “Control % PANMA Observed” value (Panicum maximum; Flumioxazin 507.70 g ai/ha) of the same compound?
Answer: 98.75%

Question: How did the “Control % BRADC Observed” value (Brachiaria decumbens; Amicarbazone 238.00 g ai/ha) turn out when CC(C)c1nn(C(=O)NC(C)(C)C)c(=O)n1N [Amicarbazone, 4-Amino-N-(tert-butyl)-3-isopropyl-5-oxo-4,5-dihydro-1H-1,2,4-triazole-1-carboxamide] was run?
Answer: 52.50%

Question: And the “Control % BRADC Observed” value (Brachiaria decumbens; Amicarbazone 442.00 g ai/ha)?
Answer: 66.25%

Question: And the “Control % BRADC Observed” value (Brachiaria decumbens; Amicarbazone 515.60 g ai/ha)?
Answer: 62.50%

Question: And the “Control % BRADC Observed” value (Brachiaria decumbens; Amicarbazone 571.15 g ai/ha)?
Answer: 77.50%

Question: What about the “Control % PANMA Observed” value (Panicum maximum; Amicarbazone 238.00 g ai/ha) of the same compound?
Answer: 83.25%

Question: What about the “Control % PANMA Observed” value (Panicum maximum; Amicarbazone 317.30 g ai/ha) of the same compound?
Answer: 75.00%

Question: What about the “Control % PANMA Observed” value (Panicum maximum; Amicarbazone 442.00 g ai/ha) of the same compound?
Answer: 0.00%

Question: What about the “Control % PANMA Observed” value (Panicum maximum; Amicarbazone 515.60 g ai/ha) of the same compound?
Answer: 90.00%

Question: What about the “Control % PANMA Observed” value (Panicum maximum; Amicarbazone 571.15 g ai/ha) of the same compound?
Answer: 91.25%

Question: And the “Control % PANMA Observed” value (Panicum maximum; Amicarbazone 589.30 g ai/ha)?
Answer: 90.00%

Question: What about the “Control % PANMA Observed” value (Panicum maximum; Amicarbazone 594.00 g ai/ha) of the same compound?
Answer: 86.25%

Question: What about the “Control % PANMA Observed” value (Panicum maximum; Amicarbazone 687.50 g ai/ha) of the same compound?
Answer: 95.00%

Question: And the “Control % PANMA Observed” value (Panicum maximum; Amicarbazone 761.54 g ai/ha)?
Answer: 98.25%

Question: What about the “Control % PANMA Observed” value (Panicum maximum; Amicarbazone 792.00 g ai/ha) of the same compound?
Answer: 88.75%
